Data as given in BindingDB's records for doi:10.1016/j.ejmech.2019.111601 (National Institute of Pharmaceutical Education and Research …, 2019).

What was measured:
[1] = biological target: Prostaglandin G/H synthase 2 (Homo sapiens) (UniProt P35354); experiment: Inhibition of recombinant human COX2 assessed as reduction in PGF2alpha incubated for 2 mins using arachidonic acid as substrate by ELISA
[2] = biological target: Prostaglandin G/H synthase 1 (Ovis aries) (UniProt P05979); experiment: Inhibition of ovine COX1 assessed as reduction in PGF2alpha incubated for 2 mins using arachidonic acid as substrate by ELISA

Prostaglandin G/H synthase 2 (Homo sapiens), sequence (P35354 whole entry, looked up): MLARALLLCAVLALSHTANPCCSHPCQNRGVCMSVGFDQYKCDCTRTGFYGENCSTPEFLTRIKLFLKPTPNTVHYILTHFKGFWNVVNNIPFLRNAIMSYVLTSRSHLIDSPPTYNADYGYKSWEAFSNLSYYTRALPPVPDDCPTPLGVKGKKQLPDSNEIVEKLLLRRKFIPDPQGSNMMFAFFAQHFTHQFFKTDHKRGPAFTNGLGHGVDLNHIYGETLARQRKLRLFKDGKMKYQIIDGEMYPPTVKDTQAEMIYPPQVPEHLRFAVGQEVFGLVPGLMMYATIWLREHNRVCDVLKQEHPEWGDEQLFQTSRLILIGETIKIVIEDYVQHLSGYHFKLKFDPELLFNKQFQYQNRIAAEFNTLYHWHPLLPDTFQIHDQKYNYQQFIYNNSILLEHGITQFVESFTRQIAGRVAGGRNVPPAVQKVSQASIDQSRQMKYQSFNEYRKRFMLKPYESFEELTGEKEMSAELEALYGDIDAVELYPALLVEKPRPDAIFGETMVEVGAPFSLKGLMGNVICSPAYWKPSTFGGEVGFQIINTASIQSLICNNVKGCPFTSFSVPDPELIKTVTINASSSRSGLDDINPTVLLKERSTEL

| IC50 [1] | IC50 [2] | Compound |
| --- | --- | --- |
| 0.367 µM | 39.9 µM | CC(=O)N(C1=CC(=O)CCC1)c1ccc(Cl)cc1 |
| 0.513 µM | 38 µM | O=C1C=C(Nc2ccc(Cl)cc2)CCC1 |
| 0.915 µM | 17.8 µM | CC(C)(C)OC(=O)N(C1=CC(=O)CCC1)c1ccc(Cl)cc1 |
